Source: US6906205B2, “Spiro and dispiro 1,2,4-trioxolane antimalarials” (Medicines for Malaria Venture MMV, priority 2002, dated 2005)
Converted amounts (≈) assume the structure as drawn.

What was measured:
[1] = system: P. falciparum K1 strain (Thailand resistant to chloroquine); experiment: semiautomated microdilution assay, [3H]-hypoxanthine incorporation, K1 strain; format: cell-based, Plasmodium falciparum; conditions: K1 strain, 72 h incubation
Outline: (§1)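 Intraerythrocytic stages from unsynchronised stock cultures are exposed to test compounds in a semiautomated microdilution format, and fifty percent inhibitory concentrations are then fitted by logit regression.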

[2] = system: P. falciparum NF54 strain (sensitive to standard antimalarials); experiment: semiautomated microdilution assay, [3H]-hypoxanthine incorporation, NF54 strain; format: cell-based, Plasmodium falciparum; conditions: NF54 strain, 72 h incubation
Outline: as §1

[3] = system: ANKA strain of P. berghei; experiment: single dose STI in vivo screen in infected mice; set-up: species or system Plasmodium berghei; conditions: for Activity (%) po / Activity (%) sc / Activity (%) SSVpo: percent reduction in parasitemia day 3 post-infection, mice; for Activity (%) po / Survival (days) po: single 10 mg/kg po in 3% ethanol and 7% Tween 80; for Activity (%) sc / Survival (days) sc: single 10 mg/kg sc in 3% ethanol and 7% Tween 80; for Activity (%) SSVpo: single po dose in standard suspending vehicle (SSV); for Survival (days) po / Survival (days) sc / Survival (days) SSVpo: untreated control 5.6 ± 0.3; for Survival (days) SSVpo: single po dose in SSV
Outline: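 Groups of 3-5 Moro SPF or NMRI mice infected with the ANKA strain of P. berghei received a single dose of trioxolane on day one post-infection. The compound was given in 3% ethanol and 7% Tween 80 or in SSV (0.5% w/v CMC, 0.5% v/v benzyl alcohol, 0.4% v/v Tween 80, 0.9% w/v sodium chloride in water). Antimalarial activity was scored as percent reduction in parasitemia on day three and as survival time versus untreated controls. Survival to day 30 counted as cure.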

Row | Compound | IC50 (ng/ml) K1 [1] | IC50 (ng/ml) NF54 [2] | Activity (%) po [3] | Activity (%) sc [3] | Activity (%) SSVpo [3] | Survival (days) po [3] | Survival (days) sc [3] | Survival (days) SSVpo [3]
1 | COC(=O)c1cn(C[C@H]2CC[C@]3(CC2)OOC2(O3)C3CC4CC(C3)CC2C4)cn1 (some centres unmarked) [OZ224] | 2.0 ng/mL (≈ 4.97 nM) | 3.0 ng/mL (≈ 7.45 nM) | 0% | 20% | 5% | 6.0 days | 5.7 days | 5.7 days
2 | O=C(O)c1cn(C[C@H]2CC[C@]3(CC2)OOC2(O3)C3CC4CC(C3)CC2C4)cn1 (some centres unmarked) [OZ225] | 7.3 ng/mL (≈ 18.8 nM) | > 10 ng/mL | 0% | 17% | 0% | 5.7 days | 6.3 days | 5.7 days
3 | [N-]=[N+]=NCC[C@H]1CC[C@]2(CC1)OOC1(O2)C2CC3CC(C2)CC1C3 (some centres unmarked) [OZ228] | 2.0 ng/mL (≈ 6 nM) | 2.1 ng/mL (≈ 6.3 nM) | 99.94% | 99.94% | 28% | 10.3 days | 14.0 days | 6.0 days
4 | O=C(NC[C@H]1CC[C@]2(CC1)OOC1(O2)C2CC3CC(C2)CC1C3)c1ccccc1C(=O)NC[C@H]1CC[C@]2(CC1)OOC1(O2)C2CC3CC(C2)CC1C3 (some centres unmarked) [OZ230] | 3.9 ng/mL (≈ 5.44 nM) | 3.6 ng/mL (≈ 5.02 nM) | 0/0/0% | 0/0/0% | 0/0/0% | 5.3 days | 5.7 days | 5.7 days
5 | O=C(O)c1cncn1C[C@H]1CC[C@]2(CC1)OOC1(O2)C2CC3CC(C2)CC1C3 (some centres unmarked) [OZ231] | >10/>10 ng/ml | >10/>10 ng/ml | 0/0/0% | 0/0/0% | 0/0/0% | 5.3 days | 6.0 days | 5.7 days
6 | CN(C)C[C@H]1CC[C@]2(CC1)OOC1(O2)C2CC3CC(C2)CC1C3 (some centres unmarked) [OZ232] | 0.30 ng/mL (≈ 0.933 nM) | 0.50 ng/mL (≈ 1.56 nM) | 76% | 99.94% | 74% | 8.0 days | 8.7 days | 7.3 days
7 | COC(=O)c1ncnn1C[C@H]1CC[C@]2(CC1)OOC1(O2)C2CC3CC(C2)CC1C3 (some centres unmarked) [OZ233] | 1.7 ng/mL (≈ 4.21 nM) | 1.9 ng/mL (≈ 4.71 nM) | 69% | 99.66% | 76% | 7.0 days | 8.3 days | 7.7 days
8 | COC(=O)c1ncn(C[C@H]2CC[C@]3(CC2)OOC2(O3)C3CC4CC(C3)CC2C4)n1 (some centres unmarked) [OZ234] | 3.0 ng/mL (≈ 7.44 nM) | 3.6 ng/mL (≈ 8.92 nM) | 12% | 0% | 0% | 6.0 days | 6.3 days | 6.0 days
9 | NC(=O)CN(CC(N)=O)C[C@H]1CC[C@]2(CC1)OOC1(O2)C2CC3CC(C2)CC1C3 (some centres unmarked) [OZ236] | 2.0/2.0 ng/ml | 2.0/2.0 ng/ml | 89% | 98.61% | 86% | 6.3 days | 7.7 days | 7.7 days
10 | N=C(N)NC[C@H]1CC[C@]2(CC1)OOC1(O2)C2CC3CC(C2)CC1C3 (some centres unmarked) [OZ237] | 5.7 ng/mL (≈ 17 nM) | 7.1 ng/mL (≈ 21.2 nM) | 5% | 52% | 9% | 6.0 days | 6.7 days | 6.0 days
11 | NC(=O)C[C@H]1CC[C@]2(CC1)OOC1(O2)C2CC3CC(C2)CC1C3 (some centres unmarked) [OZ243] | 0.91 ng/mL (≈ 2.83 nM) | 1.1 ng/mL (≈ 3.42 nM) | 87% | 70% | 97% | 7.3 days | 6.3 days | 8.7 days
12 | O=C(C[C@H]1CC[C@]2(CC1)OOC1(O2)C2CC3CC(C2)CC1C3)N1CCN(c2ccccc2)CC1 (some centres unmarked) [OZ244] | 4.0 ng/mL (≈ 8.57 nM) | 4.2 ng/mL (≈ 9 nM) | 6% | 18% | 0% | 5.7 days | 6.3 days | 5.3 days
13 | OC1(c2nccs2)CCC2(CC1)OOC1(O2)C2CC3CC(C2)CC1C3 (centres unmarked) [OZ247] | 1.8 ng/mL (≈ 4.95 nM) | 2.3 ng/mL (≈ 6.33 nM) | 57% | 99.85% | 27% | 6.3 days | 9.0 days | 6.0 days
14 | c1c[nH]c([C@H]2CC[C@]3(CC2)OOC2(O3)C3CC4CC(C3)CC2C4)n1 (some centres unmarked) [OZ251] | 0.60 ng/mL (≈ 1.82 nM) | 0.35 ng/mL (≈ 1.06 nM) | 29% | 99.87% | 6% | 6.7 days | 9.0 days | 6.0 days
15 | c1csc(NC[C@H]2CC[C@]3(CC2)OOC2(O3)C3CC4CC(C3)CC2C4)n1 (some centres unmarked) [OZ252] | 2.3 ng/mL (≈ 6.11 nM) | 2.2 ng/mL (≈ 5.84 nM) | 98.91% | 99.82% | 99.49% | 8.3 days | 9.3 days | 9.0 days
16 | C1C2CC3CC1CC(C2)C31OO[C@]2(CC[C@@H](CNC3CC3)CC2)O1 (some centres unmarked) [OZ253] | 0.56 ng/mL (≈ 1.68 nM) | 0.45 ng/mL (≈ 1.35 nM) | 75% | 99.82% | 59% | 7.0 days | 9.3 days | 6.7 days
17 | C1C2CC3CC1CC(C2)C31OO[C@]2(CC[C@@H](CN(C[C@H]3CC[C@]4(CC3)OOC3(O4)C4CC5CC(C4)CC3C5)C3CC3)CC2)O1 (some centres unmarked) [OZ254] | > 100 ng/mL | 57 ng/mL (≈ 93.5 nM) | 27% | 2% | 11% | 6.0 days | 5.7 days | 5.7 days
18 | O=C(NC[C@H]1CC[C@]2(CC1)OOC1(O2)C2CC3CC(C2)CC1C3)c1ccncc1 (some centres unmarked) [OZ255] | 2.2 ng/mL (≈ 5.52 nM) | 1.1 ng/mL (≈ 2.76 nM) | 99.61% | 99.92% | 99.54% | 9.0 days | 10.0 days | 8.7 days
19 | CS(=O)(=O)NC[C@H]1CC[C@]2(CC1)OOC1(O2)C2CC3CC(C2)CC1C3 (some centres unmarked) [OZ257] | 42 ng/mL (≈ 113 nM) | 21 ng/mL (≈ 56.5 nM) | 99.00% | 99.84% | 99.49% | 8.3 days | 9.7 days | 7.7 days
